The source of these data is patent US20240109853A1 (Shanghai Yao Yuan Biotechnology Co., Ltd., priority 2020, published 2024).

For test [1], the target named is ALPK1 (Homo sapiens (Human), UniProt Q96QP1). The test is described as follows: ALPK1 in vitro kinase assay (HTRF of TIFA phosphorylation). In kind it is biochemical. (In general: Time-resolved FRET reads energy transfer from a long-lived donor to a nearby acceptor.)
In test [2] the test system is ALPK1-dependent NFκB reporter gene activation in HEK293 cells stably expressing an NF-kB reporter (G9 cells). The test is described as follows: NFκB gene reporter alkaline phosphatase assay. In kind it is cell-based. Conditions: Homo sapiens, HEK293; read-out: NFkB assay IC50. The procedure, abridged:
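Compounds, serially diluted, were added to attached HEK293-derived G9 reporter cells for 30 min prior to stimulation with the fluoro-heptose ADP agonist. Secreted alkaline phosphatase was quantified colorimetrically using pNPP.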

As usually defined, the IC50 is the midpoint of a concentration-inhibition curve.

Sequence of ALPK1 (Q96QP1 whole entry): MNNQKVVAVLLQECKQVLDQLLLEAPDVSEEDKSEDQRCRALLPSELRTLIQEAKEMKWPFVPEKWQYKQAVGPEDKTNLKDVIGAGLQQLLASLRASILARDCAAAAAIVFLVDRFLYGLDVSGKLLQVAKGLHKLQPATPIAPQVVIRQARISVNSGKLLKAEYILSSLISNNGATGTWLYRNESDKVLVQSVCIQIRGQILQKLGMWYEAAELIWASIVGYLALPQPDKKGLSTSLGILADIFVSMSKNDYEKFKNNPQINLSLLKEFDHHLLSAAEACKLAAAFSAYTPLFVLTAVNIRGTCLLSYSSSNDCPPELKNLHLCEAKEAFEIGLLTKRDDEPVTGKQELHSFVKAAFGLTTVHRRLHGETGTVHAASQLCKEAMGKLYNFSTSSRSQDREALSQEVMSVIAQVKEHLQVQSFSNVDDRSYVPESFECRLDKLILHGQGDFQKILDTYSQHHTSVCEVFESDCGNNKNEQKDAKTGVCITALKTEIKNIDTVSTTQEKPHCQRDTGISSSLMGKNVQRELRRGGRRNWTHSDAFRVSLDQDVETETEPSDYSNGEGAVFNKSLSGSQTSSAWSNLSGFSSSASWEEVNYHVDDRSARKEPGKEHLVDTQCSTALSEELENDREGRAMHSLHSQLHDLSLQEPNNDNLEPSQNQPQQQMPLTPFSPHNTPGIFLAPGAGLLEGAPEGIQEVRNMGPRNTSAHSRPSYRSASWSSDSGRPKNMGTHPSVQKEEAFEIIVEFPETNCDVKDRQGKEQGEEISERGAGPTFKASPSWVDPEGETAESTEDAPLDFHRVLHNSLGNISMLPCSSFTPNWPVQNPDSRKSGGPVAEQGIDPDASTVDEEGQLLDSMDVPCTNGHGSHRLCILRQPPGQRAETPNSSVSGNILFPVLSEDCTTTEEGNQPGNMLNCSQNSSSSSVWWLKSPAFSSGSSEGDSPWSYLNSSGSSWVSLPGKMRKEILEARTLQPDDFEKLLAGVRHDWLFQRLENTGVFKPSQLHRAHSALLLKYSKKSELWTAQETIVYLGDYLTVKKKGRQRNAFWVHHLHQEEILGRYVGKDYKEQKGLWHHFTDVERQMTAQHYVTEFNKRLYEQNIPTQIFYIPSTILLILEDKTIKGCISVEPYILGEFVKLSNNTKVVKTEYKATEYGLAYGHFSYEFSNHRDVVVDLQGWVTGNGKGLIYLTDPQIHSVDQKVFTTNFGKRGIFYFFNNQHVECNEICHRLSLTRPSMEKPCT

On to `C#C[C@](C)(c1ccc(F)cc1)c1csc(NC(=O)NCCO)n1` (stereo in doubt) [Example A282, 1-(4-(2-(4-fluorophenyl)but-3-yn-2-yl)thiazol-2-yl)-3-(2-hydroxyethyl)urea], for which the IC50 is 2150 nM in test [1] and 7720 nM in test [2].

Turning to `CC(C)(c1ccc(Br)cc1)c1csc(NC(=O)NCc2cnc(NCCO)nc2)n1` [Example A119, 1-(4-(2-(4-bromophenyl)propan-2-yl)thiazol-2-yl)-3-((2-((2-hydroxyethyl)amino)pyri-midin-5-yl)methyl)urea], the IC50 in test [1] is 36 nM; in test [2], 4430 nM.

With `COc1ccc(C(C)(C)c2csc(NC(=O)NCc3ccc(N4CCC(N(C)C)C4)nc3)n2)cc1` (centres unmarked) [Example A011, 1-((6-(3-(dimethylamino)pyrrolidin-1-yl)pyridin-3-yl)methyl)-3-(4-(2-(4-methoxyphenyl)propan-2-yl)thiazol-2-yl)urea], the IC50 is 49 nM in test [1] and 1370 nM in test [2].

As to `COc1ccc(C(C)(C)c2csc(NC(=O)NCCCN3CCOCC3)n2)cc1` [Example A134, 1-(4-(2-(4-methoxyphenyl)propan-2-yl)thiazol-2-yl)-3-(3-morpholinopropyl)urea], the IC50 was found to be 152 nM in test [1] and 5110 nM in test [2].

On to `CC(C)(c1ccc(Cl)c(F)c1)c1csc(NC(=O)NCc2cnc(N3CCNCC3)nc2)n1` [Example A179, 1-(4-(2-(4-chloro-3-fluorophenyl)propan-2-yl)thiazol-2-yl)-3-((2-(piperazin-1-yl)pyrimidin-5-yl)methyl)urea], for which the half-inhibitory concentration (IC50) was found to be 95 nM in test [1] and 1360 nM in test [2].

Regarding `COc1ccc(C(C)(C)c2csc(NC(=O)NCCCC(=O)NC3CCN(C)CC3)n2)cc1` [Example A070, 4-(3-(4-(2-(4-methoxyphenyl)propan-2-yl)thiazol-2-yl)ureido)-N-(1-methylpiperidin-4-yl)butanamide], the half-inhibitory concentration (IC50) stood at 140 nM in test [1] and 16900 nM in test [2].

As for `COc1ccc(C(C)(C)c2csc(NC(=O)NC3CCC(O)CC3)n2)cc1` (centres unmarked) [Example A122, 1-(4-hydroxycyclohexyl)-3-(4-(2-(4-methoxyphenyl)propan-2-yl)thiazol-2-yl)urea], the results for the IC50 in test [1] and in test [2] were 219 nM and 1700 nM, respectively.

On to `COc1ccc(C(C)(C)c2csc(NC(=O)NCc3ccc(NCCN)nc3)n2)cc1` [Example A202, 1-((6-((2-aminoethyl)amino)pyridin-3-yl)methyl)-3-(4-(2-(4-methoxyphenyl)propan-2-yl)thiazol-2-yl)urea], for which the IC50 in test [1] worked out at 34 nM; in test [2], 5710 nM.

With `COc1ccc(C(C)(C)c2csc(NC(=O)NO)n2)cc1` [Example A144, 1-hydroxy-3-(4-(2-(4-methoxyphenyl)propan-2-yl)thiazol-2-yl)urea], the IC50 came to 154 nM in test [1] and 1750 nM in test [2].

`CC(C)(c1ccc(Br)cc1)c1csc(NC(=O)NCc2ccc(CN3CCNCC3)c(F)c2)n1` [Example A214, 1-(4-(2-(4-bromophenyl)propan-2-yl)thiazol-2-yl)-3-(3-fluoro-4-(piperazin-1-ylmethyl)benzyl)urea]: the IC50 came out at 40 nM in test [1] and 1560 nM in test [2].

In the case of `C#C[C@](C)(c1ccc(Cl)cc1)c1csc(NC(=O)NCCS(N)(=O)=O)n1` [Example A288, 2-(3-(4-(2-(4-chlorophenyl)but-3-yn-2-yl)thiazol-2-yl)ureido)ethanesulfona-mide], the IC50 stood at 270 nM in test [1] and 1210 nM in test [2].

As for `C#C[C@@](C)(c1ccc(Cl)cc1)c1csc(NC(=O)NC[C@@H](O)CO)n1` [Example A303, 1-(4-(2-(4-chlorophenyl)but-3-yn-2-yl)thiazol-2-yl)-3-((R)-2,3-dihydroxypropyl)urea], the IC50 in test [1] was found to be 101 nM; in test [2] it was 660 nM.

Regarding `COc1ccc(C(C)(C)c2csc(NC(=O)NCc3ccc(N4CCNC(C)C4)c(C(N)=O)c3)n2)cc1` (centres unmarked) [Example A063, 5-((3-(4-(2-(4-methoxyphenyl)propan-2-yl)thiazol-2-yl)ureido)methyl)-2-(3-methylpiperazin-1-yl)benzamide], the IC50 was 29 nM in test [1] and 2910 nM in test [2].

Consider `CC(C)(c1ccc(Br)cc1)c1csc(NC(=O)NCCCN2CCOCC2)n1` [Example A127, 1-(4-(2-(4-bromophenyl)propan-2-yl)thiazol-2-yl)-3-(3-morpholinopropyl)urea], for which the IC50 in test [1] turned out to be 113 nM; in test [2], 940 nM.

As for `CC(C)(c1ccc(Br)cc1)c1csc(NC(=O)NCc2ccnc(N3CCNCC3)n2)n1` [Example A090, 1-(4-(2-(4-bromophenyl)propan-2-yl)thiazol-2-yl)-3-((2-(piperazin-1-yl)pyrimidin-4-yl)methyl)urea], the IC50 in test [1] was determined as 178 nM; in test [2], 1110 nM.

Regarding `CCC(C)(c1ccc(Br)cc1)c1csc(NC(=O)NCc2ccc(N3CCNCC3)cc2)n1` (centres unmarked) [Example A039, 1-(4-(2-(4-bromophenyl)butan-2-yl)thiazol-2-yl)-3-(4-(piperazin-1-yl)benzyl)urea], the figures for the IC50 in test [1] and in test [2] were 189 nM and 711 nM, respectively.

For `CCN(CC)CCCNC(=O)Nc1nc(C(C)(C)c2ccc(OC)cc2)cs1` [Example A146, 1-(3-(diethylamino)propyl)-3-(4-(2-(4-methoxyphenyl)propan-2-yl)thiazol-2-yl)urea], the results for the IC50 in test [1] and in test [2] were 124 nM and 3070 nM, respectively.

For the molecule `C#CC(C)(c1ccc(Br)cc1)c1csc(NC(=O)NCC2(O)CCNCC2)n1` (centres unmarked) [Example A238, 1-(4-(2-(4-bromophenyl)but-3-yn-2-yl)thiazol-2-yl)-3-((4-hydroxypiperidin-4-yl)methyl)urea], the IC50 in test [1] was determined as 19 nM; in test [2], 27000 nM.

Turning to `COCCNC(=O)Nc1nc(C(C)(C)c2ccc(OC)cc2)cs1` [Example A110, 1-(2-methoxyethyl)-3-(4-(2-(4-methoxyphenyl)propan-2-yl)thiazol-2-yl)urea], the results for the 50% inhibitory concentration (IC50) in test [1] and in test [2] were 193 nM and 940 nM, respectively.

As for `C#CC(C)(c1ccc(Cl)cc1)c1csc(NC(=O)N2CCC(N)CC2)n1` (centres unmarked) [Example A265, 4-amino-N-(4-(2-(4-chlorophenyl)but-3-yn-2-yl)thiazol-2-yl)piperidine-1-carboxamide], the results for the IC50 in test [1] and in test [2] were 4970 nM and 2900 nM, respectively.

With `C#CC(C)(c1ccc(Br)cc1)c1csc(NC(=O)NCCN2CCOCC2)n1` (centres unmarked) [Example A155, 1-(4-(2-(4-bromophenyl)but-3-yn-2-yl)thiazol-2-yl)-3-(2-morpholinoethyl)urea], the half-maximal inhibitory concentration (IC50) turned out to be 30 nM in test [1] and 900 nM in test [2].

For the molecule `C#C[C@](C)(c1ccc(Br)cc1)c1csc(NC(=O)N2CC(CO)C2)n1` [Example A166, (R)-N-(4-(2-(4-bromophenyl)but-3-yn-2-yl)thiazol-2-yl)-3-(hydroxymethyl)azetidine-1-carboxamide], the IC50 in test [1] was 25 nM; in test [2], 5710 nM.

On to `CN(C)C1CCN(c2ccc(CNC(=O)Nc3nc(C(C)(C)c4ccc(Br)cc4)cs3)cn2)C1` (centres unmarked) [Example A106, 1-(4-(2-(4-bromophenyl)propan-2-yl)thiazol-2-yl)-3-((6-(3-(dimethylamino)pyrrolidin-1-yl)pyridin-3-yl)methyl)urea], for which the IC50 turned out to be 48 nM in test [1] and 6720 nM in test [2].

Take `C#CC(C)(c1ccc(Cl)cc1)c1csc(NC(=O)NCc2ccc(N3CCNCC3)c(F)c2)n1` (centres unmarked) [Example A262, 1-(4-(2-(4-chlorophenyl)but-3-yn-2-yl)thiazol-2-yl)-3-(3-fluoro-4-(piperazin-1-yl)benzyl)urea]: the 50% inhibitory concentration (IC50) in test [1] worked out at 13 nM; in test [2] it was 670 nM.

As for `CC(C)(c1ccc(Br)cc1)c1csc(NC(=O)NCc2ccc(OCCN3CCNCC3)cc2)n1` [Example A034, 1-(4-(2-(4-bromophenyl)propan-2-yl)thiazol-2-yl)-3-(4-(2-(piperazin-1-yl)ethoxy)benzyl)urea], the IC50 in test [1] stood at 114 nM; in test [2], 730 nM.

Turning to `COc1ccc(C(C)(C)c2csc(NC(=O)NCCOCCN3CCC(N)C3)n2)cc1` (centres unmarked) [Example A072, 1-(2-(2-(3-aminopyrrolidin-1-yl)ethoxy)ethyl)-3-(4-(2-(4-methoxyphenyl)propan-2-yl)thiazol-2-yl)urea], the IC50 turned out to be 143 nM in test [1] and 1450 nM in test [2].

Consider `COc1ccc(C(C)(C)c2csc(NC(=O)NCc3cnc(N4CCNCC4)nc3)n2)cc1` [Example A086, 1-(4-(2-(4-methoxyphenyl)propan-2-yl)thiazol-2-yl)-3-((2-(piperazin-1-yl)pyrimidin-5-yl)methyl)urea], for which the IC50 was 16 nM in test [1] and 390 nM in test [2].

As for `CC(C)(c1ccc(Br)cc1)c1csc(NC(=O)NCc2cc(N3CCNCC3)ncn2)n1` [Example A094, 1-(4-(2-(4-bromophenyl)propan-2-yl)thiazol-2-yl)-3-((6-(piperazin-1-yl)pyrimidin-4-yl)methyl)urea], the IC50 in test [1] was 73 nM; in test [2], 1290 nM.

`O=C(NCc1cc(F)c(N2CCNCC2)c(F)c1)Nc1nc(C2(c3ccc(Br)cc3)CCCC2)cs1` [Example A192, 1-(4-(1-(4-bromophenyl)cyclopent-yl)thiazol-2-yl)-3-(3,5-difluoro-4-(piperazin-1-yl)benzyl)urea]: the results for the IC50 in test [1] and in test [2] were 106 nM and 4340 nM, respectively.

`CC(C)(c1ccc(Br)cc1)c1csc(NC(=O)NCc2ccnc(N3CCNCC3)c2F)n1` [Example A207, 1-(4-(2-(4-bromophenyl)propan-2-yl)thiazol-2-yl)-3-((3-fluoro-2-(piperazin-1-yl)pyridin-4-yl)methyl)urea]: the values for the IC50 in test [1] and in test [2] were 99 nM and 2180 nM, respectively.

With `C#C[C@](C)(c1ccc(OC)cc1)c1csc(NC(N)=O)n1` [Example A172, (R)-1-(4-(2-(4-methoxyphenyl)but-3-yn-2-yl)thiazol-2-yl)urea], the IC50 in test [1] was 36 nM; in test [2], 1280 nM.
